According to US20250145665A1, “MACROCYCLIC PEPTIDES USEFUL AS MODULATORS OF TNF ALPHA” (Bristol-Myers Squibb Company, priority 2023, published 2025):
Starred links: 1 amine or outer side, 2 acyl side, 3 side chain; linkers in the order of their positions; H or OH if unused. Positions of bridges follow the written chain, without caps; N, C: chain ends. Non-standard residues stand in square brackets, D forms with d. Residues, ends and D or L forms follow the SMILES beside them. *: point of attachment. X21 = N=C(NCCC[C@@H](N[*:1])C(=O)[*:2])NC[C@H](O)[C@@H](O)[C@@H](O)CO; Bip(4'-NH) = O=C([C@H](Cc1ccc(-c2ccc(N[*:3])cc2)cc1)N[*:1])[*:2]; Indazole3carbonyl(1-CH2COOH) = O=C(O)Cn1nc(C(=O)*)c2ccccc21; Bip(4'-NHAc) = CC(=O)Nc1ccc(-c2ccc(C[C@H](N)C(=O)O)cc2)cc1; X23 = N=C(N)Nc1ccc(CNC(=N)NCCC[C@@H](N[*:1])C(=O)[*:2])cc1; X53 = CC(C)(C)n1nnc(CNC(=N)NCCC[C@@H](N[*:1])C(=O)[*:2])n1; Indole3carbonyl(1-CH2COOH) = O=C(O)Cn1cc(C(=O)*)c2ccccc21; dArg(ω-Bn) = N=C(NCCC[C@@H](N)C(=O)O)NCc1ccccc1; Ala(morpholin-4-yl) = N[C@@H](CN1CCOCC1)C(=O)O; X41 = N=C(NCCCO)NCCC[C@@H](N[*:1])C(=O)[*:2]; Bip = N[C@@H](Cc1ccc(-c2ccccc2)cc1)C(=O)O; Phe(4-NH2) = Nc1ccc(C[C@H](N)C(=O)O)cc1; 2Pal = N[C@@H](Cc1ccccn1)C(=O)O; 2Thi = N[C@@H](Cc1cccs1)C(=O)O; Chg = N[C@H](C(=O)O)C1CCCCC1; Sar = CNCC(=O)O

Target: TNFα (Homo sapiens, UniProt P01375)
Assay: TNF-Induced HEK-Blue Assay
Type: cell-based
Details: not given

Sequence of TNFα (P01375 77-233 limits assumed): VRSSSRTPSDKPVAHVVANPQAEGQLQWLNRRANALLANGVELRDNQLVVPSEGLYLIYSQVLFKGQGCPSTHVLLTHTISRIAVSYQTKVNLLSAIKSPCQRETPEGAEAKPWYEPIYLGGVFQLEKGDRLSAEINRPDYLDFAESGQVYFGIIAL

| Compound | IC50 |
| --- | --- |
| CC(C)C[C@@H]1NC(=O)[C@H](Cc2cnc[nH]2)NC(=O)[C@H](C(C)C)NC(=O)[C@@H]2CCCN2C(=O)[C@H](C(C)C)NC(=O)[C@@H](CCCNC(=N)NCc2ccccc2)NC(=O)[C@H](CC(=O)O)NC(=O)[C@H](Cc2ccccn2)NC(=O)CN(C)C(=O)[C@H](Cc2ccc(-c3ccc(NC(=O)c4cn(CC(=O)O)c5ccccc45)cc3)cc2)NC(=O)[C@H](Cc2ccc(-c3ccccc3)cc2)NC(=O)[C@H](CN2CCOCC2)NC(=O)CSC[C@@H](C(=O)NCC(N)=O)NC1=O [Example 629] ({CH2CO}-[Ala(morpholin-4-yl)][Bip][Bip(4'-NH)](Indole3carbonyl(1-CH2COOH))[Sar][2Pal]D[dArg(ω-Bn)]VPVHLCG-NH2; thioether N-13) | 50 to 200 nM |
| CC(C)C[C@@H]1NC(=O)[C@H](CCCNC(=N)N)NC(=O)[C@H](C(C)C)NC(=O)[C@@H]2CCCN2C(=O)[C@H](C(C)C)NC(=O)[C@@H](CCCNC(=N)NCc2ccc(NC(=N)N)cc2)NC(=O)[C@H](CC(=O)O)NC(=O)[C@@H]2CCCN2C(=O)CN(C)C(=O)[C@H](Cc2ccc(-c3ccc(NC(=O)c4nn(CC(=O)O)c5ccccc45)cc3)cc2)NC(=O)[C@H](Cc2ccc(-c3ccccc3)cc2)NC(=O)[C@H](CN2CCOCC2)NC(=O)CSC[C@@H](C(=O)NCC(N)=O)NC1=O [Example 432] ({CH2CO}-[Ala(morpholin-4-yl)][Bip][Bip(4'-NH)](Indazole3carbonyl(1-CH2COOH))[Sar]PD[X23]VPVRLCG-NH2; thioether N-13) | 50 to 200 nM |
| CC(C)C[C@@H]1NC(=O)[C@H](Cc2cccs2)NC(=O)[C@H](C(C)C)NC(=O)[C@@H]2CCCN2C(=O)[C@H](C(C)C)NC(=O)[C@@H](CCCNC(=N)NC[C@H](O)[C@@H](O)[C@@H](O)CO)NC(=O)[C@H](CC(=O)O)NC(=O)[C@H](Cc2ccccn2)NC(=O)CN(C)C(=O)[C@H](Cc2ccc(-c3ccc(NC(=O)c4nn(CC(=O)O)c5ccccc45)cc3)cc2)NC(=O)[C@H](Cc2ccc(-c3ccccc3)cc2)NC(=O)[C@H](CN2CCOCC2)NC(=O)CSC[C@@H](C(=O)NCC(N)=O)NC1=O [Example 640] ({CH2CO}-[Ala(morpholin-4-yl)][Bip][Bip(4'-NH)](Indazole3carbonyl(1-CH2COOH))[Sar][2Pal]D[X21]VPV[2Thi]LCG-NH2; thioether N-13) | 50 to 200 nM |
| CC(C)C[C@@H]1NC(=O)[C@H](CCCNC(=N)N)NC(=O)[C@H](C(C)C)NC(=O)[C@@H]2CCCN2C(=O)[C@H](C(C)C)NC(=O)[C@@H](CCCNC(=N)NCCCO)NC(=O)[C@H](CC(=O)O)NC(=O)[C@@H]2CCCN2C(=O)CN(C)C(=O)[C@H](Cc2ccc(-c3ccc(NC(=O)c4nn(CC(=O)O)c5ccccc45)cc3)cc2)NC(=O)[C@H](Cc2ccc(-c3ccccc3)cc2)NC(=O)[C@H](CN2CCOCC2)NC(=O)CSC[C@@H](C(=O)NCC(N)=O)NC1=O [Example 389] ({CH2CO}-[Ala(morpholin-4-yl)][Bip][Bip(4'-NH)](Indazole3carbonyl(1-CH2COOH))[Sar]PD[X41]VPVRLCG-NH2; thioether N-13) | < 50 nM |
| CC(C)C[C@@H]1NC(=O)[C@H](CCCNC(=N)N)NC(=O)[C@H](C(C)C)NC(=O)[C@@H]2CCCN2C(=O)[C@H](C(C)C)NC(=O)[C@@H](CCCNC(=N)NCc2nnn(C(C)(C)C)n2)NC(=O)[C@H](CC(=O)O)NC(=O)[C@@H]2CCCN2C(=O)CN(C)C(=O)[C@H](Cc2ccc(-c3ccc(NC(=O)c4nn(CC(=O)O)c5ccccc45)cc3)cc2)NC(=O)[C@H](Cc2ccc(-c3ccccc3)cc2)NC(=O)[C@H](CN2CCOCC2)NC(=O)CSC[C@@H](C(=O)NCC(N)=O)NC1=O [Example 510] ({CH2CO}-[Ala(morpholin-4-yl)][Bip][Bip(4'-NH)](Indazole3carbonyl(1-CH2COOH))[Sar]PD[X53]VPVRLCG-NH2; thioether N-13) | < 50 nM |

Same assay, conditions: HEK-Blue-CD40L cells, NF-kB-driven secreted alkaline phosphatase reporter; TNFα 0.5 ng/ml; 18 h; read-out: TNF induced HEK-Blue assay IC50 value

| IC50 | Compound |
| --- | --- |
| 50 to 200 nM | CC(=O)Nc1ccc(-c2ccc(C[C@@H]3NC(=O)[C@H](Cc4ccc(-c5ccccc5)cc4)NC(=O)[C@H](CN4CCOCC4)NC(=O)CSC[C@@H](C(=O)NCC(N)=O)NC(=O)[C@H](CC(C)C)NC(=O)[C@H](CCCNC(=N)N)NC(=O)[C@H](C4CCCCC4)NC(=O)[C@@H]4CCCN4C(=O)[C@H](CC(N)=O)NC(=O)[C@@H](CCCNC(=N)N)NC(=O)[C@H](CC(=O)O)NC(=O)[C@H](Cc4ccccn4)NC(=O)CN(C)C3=O)cc2)cc1 [Example 218] ({CH2CO}-[Ala(morpholin-4-yl)][Bip][Bip(4'-NHAc)][Sar][2Pal]D[dR]NP[Chg]RLCG-NH2; thioether N-13) |
| 50 to 200 nM | CC(C)C[C@@H]1NC(=O)[C@H](CCCNC(=N)N)NC(=O)[C@H](C(C)C)NC(=O)[C@@H]2CCCN2C(=O)[C@H](Cc2ccc(N)cc2)NC(=O)[C@H](CCCNC(=N)N)NC(=O)[C@H](CC(=O)O)NC(=O)[C@@H]2CCCN2C(=O)CN(C)C(=O)[C@H](Cc2ccc(-c3ccccc3)cc2)NC(=O)[C@H](Cc2ccc(-c3ccccc3)cc2)NC(=O)[C@H](CN2CCOCC2)NC(=O)CSC[C@@H](C(=O)NCC(N)=O)NC1=O [Example 55] ({CH2CO}-[Ala(morpholin-4-yl)][Bip][Bip][Sar]PDR[Phe(4-NH2)]PVRLCG-NH2; thioether N-13) |
